Test results published in patent US7049282B2, “Inhibition of complement action” (Duke University, priority 1999, dated 2006).

Tested on: complement binding to the sheep erythrocyte targets
Assay: standard assay of inhibition of complement binding (Miletic et al): sheep erythrocytes sensitized with rabbit antibody, C8D human serum
Type: biochemical
Text: In addition to the peptides and derivatives described above, the invention also relates to mimetics of the peptides that have the above-described complement blocking function. The mimetics can be identified using protocols available in the art, including those described by Miletic et al, J. Immunology 156:749 (1996)) which are based on the binding of complement to antibody-sensitized red blood cells and on the binding of complement to solid phase immune complexes. As described below, these protocols can be used to identify complement-blocking peptides and derivatives as well.
Peptides, derivatives and mimetics that block complement function can be identified by incubating a target for an active complement protein, for example, antibody-coated particles (e.g., antibody-sensitized red blood cells) or immune complexes (e.g., bovine serum albumin-anti-bovine serum complexes) bound to a solid support, with the a complement protein or a complement activating system (e.g., containing C3 or C4 or mixtures of complement proteins such as found in serum (e.g., C8 or C9 deficient serum)), in the presence and in the absence of the test agent (peptide, derivative or mimetic). […] The amount of binding can be determined using any of a variety of approaches, including using radiolabeled anti-complement protein IgG. […]

Sequence: WESNGQPENN
- activity in inhibiting complement binding (IgG fragments and peptides isolated from digests): highly active
- activity in complement inhibition (synthesized peptides): highly active
